Measured values taken from patent publication US11780845B2 (Relay Therapeutics, Inc., priority 2019, dated 2023).

Key:
FGFR2 = FGFR2 (Homo sapiens (Human), UniProt P21802); experiment: Biochemical FGFR2 Caliper assay
SNU-16 = experiment: Cell SNU-16 assay; format: cell-based; conditions: Homo sapiens, SNU-16, SNU-16 cells

Chain of FGFR2 (P21802 22-821): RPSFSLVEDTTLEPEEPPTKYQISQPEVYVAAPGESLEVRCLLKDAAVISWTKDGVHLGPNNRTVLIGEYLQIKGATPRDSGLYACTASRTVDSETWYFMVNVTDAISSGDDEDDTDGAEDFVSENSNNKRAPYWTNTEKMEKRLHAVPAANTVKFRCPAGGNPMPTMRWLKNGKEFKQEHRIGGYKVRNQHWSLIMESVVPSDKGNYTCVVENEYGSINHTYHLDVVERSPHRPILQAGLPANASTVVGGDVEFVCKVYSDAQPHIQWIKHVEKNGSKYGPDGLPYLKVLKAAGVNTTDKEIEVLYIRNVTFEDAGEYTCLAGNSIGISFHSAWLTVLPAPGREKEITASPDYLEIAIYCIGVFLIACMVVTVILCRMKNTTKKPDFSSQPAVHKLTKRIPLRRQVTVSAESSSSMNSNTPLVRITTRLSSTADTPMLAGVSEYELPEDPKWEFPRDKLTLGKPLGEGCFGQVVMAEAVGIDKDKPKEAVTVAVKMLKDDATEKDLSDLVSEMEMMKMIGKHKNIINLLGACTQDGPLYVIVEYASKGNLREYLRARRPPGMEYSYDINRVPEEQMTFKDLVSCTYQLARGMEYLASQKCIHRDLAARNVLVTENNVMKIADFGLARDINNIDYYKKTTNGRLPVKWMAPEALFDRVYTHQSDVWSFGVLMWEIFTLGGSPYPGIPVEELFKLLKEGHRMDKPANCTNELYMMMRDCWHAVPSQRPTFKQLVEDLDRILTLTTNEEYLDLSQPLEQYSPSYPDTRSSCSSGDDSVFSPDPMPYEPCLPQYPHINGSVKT

Row | Compound | IC50 (FGFR2) | IC50 (SNU-16)
1 | C=C(C)C(=O)Nc1ccc(-c2c(C3=CC[C@H](C(=O)N4CC[C@@H]5C[C@@H]54)CC3)c3c(N)ncnc3n2C)cc1 (single isomer, unassigned) [Example 1038] | < 100 nM | ≤ 100 nM
2 | C=C(C)C(=O)Nc1ccc(-c2c(C3=CC[C@@H](C(=O)N4CC[C@H]5C[C@H]54)CC3)c3c(N)ncnc3n2C)cc1 (single isomer, unassigned) [Example 1039] | 1000 to 100000 nM | 1000 to 100000 nM
3 | CN(C)C/C=C/C(=O)Nc1ccc(-c2c(C3=CC[C@H](C(=O)N4CCCC4)CC3)c3c(N)ncnc3n2C)cc1 (single isomer, unassigned) [Example 1042] | < 100 nM | ≤ 100 nM
4 | C=C(C)C(=O)Nc1ccc(-c2c(C3=CC[C@H](C(=O)N4CC[C@H]5C[C@H]54)CC3)c3c(N)ncnc3n2C)cc1 (single isomer, unassigned) [Example 1043] | < 100 nM | ≤ 100 nM
5 | C=CC(=O)Nc1ccc(-c2c(C3=CC[C@@H](C(=O)N4CCCC4)CC3)c3c(N)ncnc3n2C)c(C)c1 (single isomer, unassigned) [Example 1102] | < 100 nM | ≤ 100 nM
6 | C=CC(=O)Nc1ccc(-c2c(C3=CC[C@@H](C(=O)N4CCCC4)CC3)c3c(C)ncnc3n2C)c(C)c1 (single isomer, unassigned) [Example 1106] | < 100 nM | ≤ 100 nM
7 | C=CC(=O)Nc1ccc(-c2c(C3=CC[C@H](C(=O)N4CCCC4)CC3)c3c(C)ncnc3n2C)cc1 (single isomer, unassigned) [Example 1107] | < 100 nM | ≤ 100 nM
8 | C=C1CCN(c2ccc(-c3c(C4=CC[C@@H](C(=O)N5CCCC5)CC4)c4c(N)ncnc4n3C)cc2)C1=O (single isomer, unassigned) [Example 1134] | 250 to 1000 nM | 100 to 250 nM
9 | C=C1CCN(c2ccc(-c3c(C4=CC[C@H](C(=O)N5CCCC5)CC4)c4c(N)ncnc4n3C)cc2)C1=O (single isomer, unassigned) [Example 1137] | 250 to 1000 nM | 100 to 250 nM
10 | C=C1CCN(c2ccc(-c3c(C4=CC[C@@H](C(=O)N5CCCC5)CC4)c4c(C)ncnc4n3C)c(Cl)c2)C1=O (single isomer, unassigned) [Example 1140] | < 100 nM | ≤ 100 nM
11 | C=C1CCN(c2ccc(-c3c(C4=CC[C@H](C(=O)N5CCCC5)CC4)c4c(C)ncnc4n3C)c(Cl)c2)C1=O (single isomer, unassigned) [Example 1141] | < 100 nM | ≤ 100 nM
12 | C#Cc1cc(C)c(-c2c(C3=CC[C@@H](C(=O)N4CCCC4)CC3)c3c(N)ncnc3n2C)cn1 (single isomer, unassigned) [Example 1142] | < 100 nM | ≤ 100 nM
13 | C#Cc1ncc(-c2c(C3=CC[C@@H](C(=O)N4CCCC4)CC3)c3c(C)ncnc3n2C)c(C)n1 (single isomer, unassigned) [Example 1166] | < 100 nM | ≤ 100 nM
14 | C#Cc1ncc(-c2c(C3=CC[C@H](C(=O)N4CCCC4)CC3)c3c(C)ncnc3n2C)c(C)n1 (single isomer, unassigned) [Example 1169] | < 100 nM | ≤ 100 nM
15 | C#Cc1cc(C)c(-c2c(C3=CC[C@@H](C(=O)N4CCCC4)CC3)c3c(C)ncnc3n2C)cn1 (single isomer, unassigned) [Example 1199] | < 100 nM | ≤ 100 nM
16 | C#Cc1cc(C)c(-c2c(C3=CC[C@H](C(=O)N4CCCC4)CC3)c3c(C)ncnc3n2C)cn1 (single isomer, unassigned) [Example 1201] | < 100 nM | ≤ 100 nM
17 | C#Cc1ccc(-c2c(C3=CC[C@H](C(=O)N4CCC[C@H]4COC)CC3)c3c(N)ncnc3n2C)c(C)n1 (single isomer, unassigned) [Example 1204] | < 100 nM | ≤ 100 nM
18 | C#Cc1cc(C)c(-c2c(C3=CC[C@H](C(=O)N4CCC[C@H]4COC)CC3)c3c(N)ncnc3n2C)cn1 (single isomer, unassigned) [Example 1205] | 250 to 1000 nM | 250 to 1000 nM
19 | C#Cc1ccc(-c2c(C3=CC[C@H](C(=O)N4CCCC4)CC3)c3cncnc3n2C)c(C)n1 (single isomer, unassigned) [Example 1207] | 1000 to 100000 nM | 1000 to 100000 nM
20 | C#Cc1ccc(-c2c(C3=CC[C@@H](C(=O)N4CCCC4)CC3)c3cncnc3n2C)c(C)n1 (single isomer, unassigned) [Example 1208] | 1000 to 100000 nM | 250 to 1000 nM
21 | C#Cc1cc(C)c(-c2c(C3=CC[C@@H](C(=O)N4CCC[C@@H]4C)CC3)c3c(N)ncnc3n2C)cn1 (single isomer, unassigned) [Example 1210] | < 100 nM | ≤ 100 nM
22 | C#Cc1ccc(-c2c(C3=CC[C@@H](C(=O)N4CCC[C@H]4COC)CC3)c3c(N)ncnc3n2C)c(C)n1 (single isomer, unassigned) [Example 1211] | < 100 nM | 100 to 250 nM
23 | C#Cc1cc(C)c(-c2c(C3=CC[C@@H](C(=O)N4CCC[C@H]4COC)CC3)c3c(N)ncnc3n2C)cn1 (single isomer, unassigned) [Example 1212] | < 100 nM | 100 to 250 nM
24 | C#Cc1cc(C)c(-c2c(C3=CC[C@@H](C(=O)N4CCC[C@H]4C)CC3)c3c(N)ncnc3n2C)cn1 (single isomer, unassigned) [Example 1219] | < 100 nM | ≤ 100 nM
25 | C#Cc1ccc(-c2c(C3=CC[C@@H](C(=O)N4CCC[C@@H]4C#C)CC3)c3c(N)ncnc3n2C)c(C)n1 (single isomer, unassigned) [Example 1229] | < 100 nM | ≤ 100 nM

Row | Compound | IC50 (FGFR2) | IC50 (SNU-16)
26 | C#Cc1ccc(-c2c(C3=CC[C@@H](C(=O)N4CCC[C@H]4C#C)CC3)c3c(N)ncnc3n2C)c(C)n1 (single isomer, unassigned) [Example 1230] | < 100 nM | ≤ 100 nM
27 | C#Cc1cc(C)c(-c2c(C3=CC[C@@H](C(=O)N4CCC[C@H]4CO)CC3)c3c(N)ncnc3n2C)cn1 (single isomer, unassigned) [Example 1231] | < 100 nM | ≤ 100 nM
28 | C#Cc1ccc(-c2c(C3=CC[C@@H](C(=O)N4CCC[C@H]4C#N)CC3)c3c(N)ncnc3n2C)c(C)n1 (single isomer, unassigned) [Example 1235] | < 100 nM | ≤ 100 nM
29 | C#Cc1cc(C)c(-c2c(C3=CC[C@H](C(=O)N4CCCC45COC5)CC3)c3c(N)ncnc3n2C)cn1 (single isomer, unassigned) [Example 1238] | 250 to 1000 nM | 100 to 250 nM
30 | C#Cc1cc(C)c(-c2c(C3=CC[C@@H](C(=O)N4CCCC45COC5)CC3)c3c(N)ncnc3n2C)cn1 (single isomer, unassigned) [Example 1239] | < 100 nM | ≤ 100 nM
31 | C#Cc1cc(C)c(-c2c(C3=CC[C@H](C(=O)N4CCCC4=O)CC3)c3c(N)ncnc3n2C)cn1 (single isomer, unassigned) [Example 1240] | 100 to 250 nM | 100 to 250 nM
32 | C#Cc1cc(C)c(-c2c(C3=CC[C@@H](C(=O)N4CCCC4=O)CC3)c3c(N)ncnc3n2C)cn1 (single isomer, unassigned) [Example 1241] | < 100 nM | ≤ 100 nM
33 | C#Cc1ncc(-c2c(C3=CC[C@@H](C(=O)N4CCCC4)CC3)c3c(N)ncnc3n2C)c(C)c1F (single isomer, unassigned) [Example 1329] | 250 to 1000 nM | 100 to 250 nM
34 | C#Cc1ncc(-c2c(C3=CC[C@H](C(=O)N4CCCC4)CC3)c3c(N)ncnc3n2C)c(C)c1F (single isomer, unassigned) [Example 1330] | < 100 nM | ≤ 100 nM
35 | C#Cc1ncc(-c2c(-c3ccc(C(=O)N4CCC[C@H]4C#C)cc3)c3c(N)ncnc3n2C)c(C)c1F (single isomer, unassigned) [Example 1331] | < 100 nM | ≤ 100 nM
36 | C#Cc1ncc(-c2c(-c3ccc(C(=O)N4CCC[C@@H]4C#C)cc3)c3c(N)ncnc3n2C)c(C)c1F (single isomer, unassigned) [Example 1332] | < 100 nM | ≤ 100 nM
37 | C=C(C)C(=O)Nc1ccc(-c2c(C3=CC[C@@]4(CC3)Cc3ccc(C)nc3C4=O)c3c(N)ncnc3n2C)cc1 (single isomer, unassigned) [Example 1366] | 1000 to 100000 nM | 1000 to 100000 nM
38 | C=C(C)C(=O)Nc1ccc(-c2c(C3=CC[C@]4(CC3)Cc3ccc(C)nc3C4=O)c3c(N)ncnc3n2C)cc1 (single isomer, unassigned) [Example 1367] | < 100 nM | ≤ 100 nM
39 | C=C(C)C(=O)Nc1cc(C)c(-c2c(C3=CC[C@@H](C(=O)N4CCCC4)CC3)c3c(N)ncnc3n2C)c(C)c1 (single isomer, unassigned) [Example 1484] | 1000 to 100000 nM | 1000 to 100000 nM
40 | C=C(C)C(=O)Nc1cc(C)c(-c2c(C3=CC[C@H](C(=O)N4CCCC4)CC3)c3c(N)ncnc3n2C)c(C)c1 (single isomer, unassigned) [Example 1486] | 1000 to 100000 nM | 1000 to 100000 nM
41 | C=CC(=O)N1CCC(c2c(-c3ccc(N4CCCC4=O)nc3)c3c(N)ncnc3n2C)C1 (centres unmarked) [Example 798] | 250 to 1000 nM | 1000 to 100000 nM
42 | C=CC(=O)N1CCC(c2c(-c3ccc(CC4CCCC4)cc3)c3c(N)ncnc3n2C)C1 (centres unmarked) [Example 799] | 250 to 1000 nM | 250 to 1000 nM
43 | C=CC(=O)N1CCC(c2c(-c3ccc(N4CCCC4)c(C(F)(F)F)c3)c3c(N)ncnc3n2C)C1 (centres unmarked) [Example 800] | < 100 nM | ≤ 100 nM
44 | C=C(C)C(=O)Nc1ccc(-c2sc3ncnc(N)c3c2-c2ccc(Oc3cccc(C)n3)cc2)cc1 [Example 801] | < 100 nM | ≤ 100 nM
45 | C=C(C)C(=O)Nc1ccc(-c2oc3ncnc(N)c3c2-c2ccc(Oc3cccc(C)n3)cc2)cc1 [Example 802] | 1000 to 100000 nM | 1000 to 100000 nM
46 | C=CC(=O)N1CCC(c2c(-c3ccc(N4CCNC4=O)cc3)c3c(N)ncnc3n2C)C1 (centres unmarked) [Example 803] | 1000 to 100000 nM | 1000 to 100000 nM
47 | C=CC(=O)N1CCC(c2c(-c3ccc(OC4CC4)nc3)c3c(N)ncnc3n2C)C1 (centres unmarked) [Example 804] | 100 to 250 nM | 1000 to 100000 nM
48 | C=CC(=O)N1CCC(c2c(-c3ccc(N4CCN(C)C4=O)cc3)c3c(N)ncnc3n2C)C1 (centres unmarked) [Example 805] | 1000 to 100000 nM | 250 to 1000 nM
49 | C=CC(=O)N1C[C@H](c2c(-c3ccc(Oc4cccc(C)n4)cc3)c3c(N)ncnc3n2C)[C@@H](O)C1 [Example 806] | < 100 nM | 100 to 250 nM
